2 compounds from EP1432717B1, “SUBSTITUTED DISILOXANES, METHOD FOR THE PRODUCTION THEREOF AND THE USE THEREOF FOR REVERSAL OF MULTIDRUG RESISTANCE (MDR)” (Molnar, Jozsef, priority 2000, dated 2002) can be followed below.

Structures can show the parent of a compound that is named as a salt.

A short description of series [1]: Water solubility (stated in heading).
The nature of series [2]: In vivo toxicity test in mice. Set-up: species or system Mäuse. To be noted: for survival: mouse, in vivo, 10 mg/kg, 10,0 mg/kg, read-out: Überleben der Mäuse. The text has this:
Der Erfindung liegt die Aufgabe zugrunde, Verbindungen zur Verfügung zu stellen, mit denen sich die Wirksamkeit von Zytostatika verbessern lässt. Die Aufgabe wurde erfindungsgemäß durch die Bereitstellung von neuen organischen Siliciumverbindungen der Formel I gelöst. Die erfindungsgemäßen neuen substituierten Disiloxane der allgemeinen Formel I [drawing 2] enthalten folgenden Substituenten: • R^1 = Methyl, Ethyl, Phenyl oder tertiär Butyl • R^2 = X (Halogen: Cl, Br, F), CX3, (para, ortho, meta), • n = 0-1, m = 1-3 • Q = Alkyl, Cycloalkyl, sekundäres Amin, Morpholin, substituiertes Piperazin, worin [drawing 3] • R^3 = Methyl, Ethyl, Butyl, Phenyl, Benzyl, -(CH2)pSi(R^4)3 mit p = 1 - 3 und R^4 = Methyl, Ethyl bedeuten. Die erfindungsgemäß bereitgestellten Verbindungen werden durch Umsetzung von substituierten Alkyl-dichlor-silanen mit Aryl-Grignard-Verbindungen gewonnen und daraus durch acide Hydrolyse Disiloxane, die ihrerseits im Fall von Halogen-Alkylen mit Aminen umgesetzt werden. In speziellen Fällen wird Magnesium mit 4-Fluor-brombenzol umgesetzt und daraus durch Reaktion mit 3-Chlorpropyl-methyl-dichlorsilan das Zwischenprodukt 1,3-bis(4-fluorophenyl)-1,3-dimethyl-1,3-bis(3-chloropropyl)-disiloxan gewonnen. Dieses Produkt wird seinerseits mit Morpholin zu ALIS 409 oder mit 4-Butyl-piperazin zu ALIS 421 (Beispiele 2 und 3) umgesetzt. Überraschendweise hat sich herausgestellt, dass es sich bei den erfindungsgemäßen neuen substituierten Disiloxane um biologisch wirksame, nicht toxische Verbindungen handelt, die zur Umkehrung der Multidrogeresistenz (Mdr) der malignen Tumorzellen und pathogenen Erreger fähig sind und die Effluxpumpenaktivität der malignen Mdr-Tumorzellen und die Pgp-Resistenz von parasitären Zellen, Pilzen sowie von Bakterien bereits im ng/ml-Konzentrationsbereich stark inhibieren. Die neuen substituierten Disiloxane finden Verwendung als Zytostatika und in der Chemotherapie - auch in Kombination mit anderen Mitteln. Es ist überraschend, dass sie eine starke Chemosensitation der resistenten Mdr-Tumorzellen verursachen und ihre Effluxpumpenaktivität unterdrücken. Dadurch lässt sich die intrazelluläre Chemotherapeutikum-Konzentration so hoch ansetzen, dass kein Unterschied mehr im Vergleich mit parentalen Zellen nachgewiesen werden kann. Die als ALIS-Verbindungen bezeichneten erfindungsgemäßen Substanzen sind dadurch gekennzeichnet, dass sie biologisch wirksam sind und die Effluxpumpenaktivität der malignen Mdr-Tumorzellen, Pgp-Resistenz von parasitären Zellen, Pilzen und Bakterien bereits im ng/ml-Konzentrationsbereich stark inhibieren. Auch in höheren Konzentration wirken sie in vivo nicht toxisch. Nach dem Zell-Substanz-Kontakt sind sie sofort wirksam. Die ALIS-Verbindungen sind dadurch gekennzeichnet, dass sie hauptsächlich die Wirksamkeit der Chemotherapie erhöhen, aber auch allein zytostatisch wirken. Die Toxizität der neuen Verbindungen wurde im Maussytem getestet. Das Ergebnis war überraschend gut. Trotz zehnfacher Überdosierung konnte der ID-50 Wert nicht ermittelt werden, da die Mäuse die Behandlung 100%-ig überlebt haben und kein Gewichtsverlust auftrat. In manchen Fällen bekamen die Mäuse scheinbar sogar mehr Appetit. Alle Ergebnisse weisen darauf hin, dass die erfindungsgemäß bereitgestellten Verbindungen zum Einsatz in der Chemotherapie von Tumoren bzw. von Infektionskrankheiten geeignet sind. […]

In another series the test system is Mdr RNA Synthese. The series is described as follows: PCR check of Mdr gene expression. Format: cell-based. The procedure: (§1) Die Intensität der unbehandelten Mdr-Zellen entsprach der 100%-igen Effluxpumpemktivität. Bei mehrfach wiederholten unabhängigen Versuchen in Deutschland und in Ungam wurde eine Inhibition der Effluxpumpen bereits bei 40,0 ng/ml Konzentration zwischen 20-45% gefunden und bei etwa 200,0 ng/ml Konzentration eine 80%-ige Hemmung erreicht. Der 100%-ige Hemmungsbereich liegt etwa zwischen 300-800 ng/ml. Es gab zwar eine erhebliche Schwankung bei der Wiederholung, jedoch fiel immer die 100%-ige Hemmung in den Nanogramm Bereich. Bei der Überprüfung von Mdr-Gen-Expression mittels PCR wurde kein Einfluss dieser ALIS-Verbindung auf die Reduktion oder Verstärkung der Mdr RNA Synthese gefunden. Das ist deshalb günstig, weil die Mdr auch eine wichtige physiologische Rolle bei den Entgiflungsmechanismen der gesunden Zellen (z.B. Nierenzellen) spielt und nach der Beendigung der Therapie das aktive gp-170 Protein wieder produziert werden kann. Außerdem wirkt ALIS-409 auch allein cancerostatisch - und zwar gegenüber gp-170 positiv (EPG85-257RDB) Magencarcinomazellen in vitro. Es wurde die folgende Proliferationshemmung nachgewiesen: 41% bei 100 ng/ml und 74% bei 300 ng/ml.
Die methodische Überprüfung war mit dem Beispiel 3 identisch. Auch die Inhibition der Effluxpumpenaktivitäten waren ähnlich groß. Im Konzentrationsbereich 200-500 ng/ml konnte eine 100%-ige Inhibition erreicht werden. […]

For series [3], the system named is gp-170 positiv (EPG85-257RDB) Magencarcinomazellen. The series is described as follows: In vitro proliferation inhibition (compound alone). It is filed as cell-based. The procedure: as §1
In a further series the test system is gp-170 Protein. Kind of series: Rhodamine-123 efflux pump inhibition assay (cell sorter fluorescence FL1). The following applies: for 100%-ige Hemmungsbereich (concentration range giving 100% inhibition of the efflux pump): considerable variation between repeats. It is filed as cell-based, Maus. The procedure: 0,5 ml 2x10^6 /ml L-5178Y parental und Mdr Mauslymphomazellen wurden 10 Min. lang mit 40,0 200,0 und 1000 ng ALIS-409 inkubiert. Danach wurden die Zellen mit Rhodamin-123 Indikatorfarbstoff (Endkonzentration: 5,2 µMol) bei 37C° für 20 Min. inkubiert. Die Zellen wurden mit PBS gewaschen und die Fluoreszenz-Intensität (FL1) mittels Cellsorter gemessen. Die Intensität der unbehandelten parentalen Zellen entsprach der 100%igen Hemmung.
as §1
Die methodische Überprüfung war mit dem Beispiel 3 identisch. Auch die Inhibition der Effluxpumpenaktivitäten waren ähnlich groß. Im Konzentrationsbereich 200-500 ng/ml konnte eine 100%-ige Inhibition erreicht werden. […] Die schnelle Hemmung nach einer 10-minütigen Inkubatioszeit weist auf eine direkte Interaktion zwischen der Substanz und dem gp-170 Protein hin.

Setting [4] is: L-5178Y Mdr Mauslymphomazellen, 10 min incubation.

Consider `C[Si](CCCN1CCOCC1)(O[Si](C)(CCCN1CCOCC1)c1ccc(F)cc1)c1ccc(F)cc1` (centres unmarked) [ALIS-409, 1,3-Dimethyl-1,3-bis(4-fluorophenyl)-1,3-bis(3-morpholino-propyl)-disiloxan-dihydrochlorid], for which, in series [1], the Wasserlöslichkeit result is recorded as “sehr gut wasserlöslich”. In addition, the Gewichtsverlust result in series [2] (10,0 mg/kg) is reported as “ohne Gewichtsverlust”. In addition, the survival in series [2] stood at 100%. Further, the “Einfluss auf die Mdr-Gen-Expression (Mdr RNA Synthese)” value with Mdr RNA Synthese is reported as “kein Einfluss”. Moreover, in series [3] (100 ng/ml, EPG85-257RDB, read-out: Proliferationshemmung), the inhibition at 0.1 µg/mL was found to be 41%. Further, the inhibition at 0.3 µg/mL in series [3] (300 ng/ml, EPG85-257RDB, read-out: Proliferationshemmung) was 74%. Besides, the “Inhibition der Effluxpumpen” value in the series with gp-170 Protein (40,0 ng/ml, L-5178Y Mdr Mauslymphomazellen, 10 min incubation, repeated independent experiments) is listed as 20-45%. For the same compound, the “100%-ige Hemmungsbereich (concentration range giving 100% inhibition of the efflux pump)” value in the series with gp-170 Protein (setting [4]) lay within 300 to 800 ng/mL. Also, the “Hemmung (Effluxpumpen)” value with gp-170 Protein (about 200,0 ng/ml, L-5178Y Mdr Mauslymphomazellen, 10 min incubation) is on record as 80%.
Regarding `CCCCN1CCN(CCC[Si](C)(O[Si](C)(CCCN2CCN(CCCC)CC2)c2ccc(F)cc2)c2ccc(F)cc2)CC1` (centres unmarked) [ALIS-421, 1,3-Dimethyl-1,3-bis(4-fluorophenyl)-1,3-bis{3-[1(4-butyl-piperazinyl)]-propyl}-disiloxan-tetrahydrochlorid], the Wasserlöslichkeit result in series [1] was “sehr gut wasserlöslich”. Besides, in series [2] (10,0 mg/kg), the Gewichtsverlust entry is listed as “ohne Gewichtsverlust” and the Toxizität entry is given as “nicht toxisch”. Besides, the survival in series [2] was determined as 100%. Further, in the series on Mdr RNA Synthese, the “Einfluss auf die Mdr-Gen-Expression (Mdr RNA Synthese)” value was “keinen Einfluss”. The “cancerostatischer Effekt allein” value in series [3] (comparison in words) is recorded as “schwächer als bei ALIS 409”. Besides, the “100%-ige Hemmungsbereich (concentration range giving 100% inhibition of the efflux pump)” value in the series on gp-170 Protein (setting [4]) is 200 to 500 ng/mL. For the same compound, the “Inhibition der Effluxpumpenaktivität (in words)” value in the series on gp-170 Protein (Mdr tumour cells, qualitative statement) is “ähnlich groß”.
